Measured values as given in publication PMC5843908, “Detection of PRMT1 inhibitors with stopped flow fluorescence” (Signal Transduction and Targeted Therapy, 2018).

Biological target: PRMT1 (Homo sapiens, UniProt Q99873)
Experiment: Stopped flow fluorescence assay of PRMT1 inhibition ([PRMT1] 0.2 µM, [SAM] 3.5 µM, [H4FL] 0.4 µM);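 further: Stopped-flow traces of fluorescent H4FL peptide quenched on binding PRMT1 and restored on release, recorded 900 s, averaged over repeated drives and fit to a double-exponential model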
Format: biochemical

Sequence of PRMT1 (Q99873 29-371): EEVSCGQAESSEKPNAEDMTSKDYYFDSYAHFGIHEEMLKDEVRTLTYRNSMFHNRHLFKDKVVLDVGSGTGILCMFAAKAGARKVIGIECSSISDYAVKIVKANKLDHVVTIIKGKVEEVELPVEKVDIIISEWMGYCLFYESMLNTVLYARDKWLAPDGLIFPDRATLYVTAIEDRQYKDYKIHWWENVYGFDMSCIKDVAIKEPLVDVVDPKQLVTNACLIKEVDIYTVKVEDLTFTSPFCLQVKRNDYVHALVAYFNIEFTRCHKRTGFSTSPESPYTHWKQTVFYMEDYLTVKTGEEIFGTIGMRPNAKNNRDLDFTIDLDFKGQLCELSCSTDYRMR

Nc1ncnc2c1ncn2[C@@H]1O[C@H](CSCC[C@H](N)C(=O)O)[C@@H](O)[C@H]1O [SAH, S-adenosyl homocysteine]
-b·k2 (slope of Phase II) ([SAH] 0.1 µM): 0.000677 ± 1.35e-06 s⁻¹ | a (amplitude, Phase I) ([SAH] 0.1 µM): 0.2027 ± 4.00E-04 | a·k1 (slope of Phase I) ([SAH] 0.1 µM): 0.0122 ± 4.9e-05 s⁻¹ | b (amplitude, Phase II) ([SAH] 0.1 µM): -0.2201 ± 1.26E-04 | k1 (rate constant, Phase I) ([SAH] 0.1 µM): 0.05995 ± 2.11E-04 s^-1 | k2 (rate constant, Phase II) ([SAH] 0.1 µM): 0.003078 ± 5.86E-06 s^-1 | -b·k2 (slope of Phase II) ([SAH] 0.25 µM): 0.000561 ± 1.3e-06 s⁻¹ | a (amplitude, Phase I) ([SAH] 0.25 µM): 0.2214 ± 4.39E-04 | a·k1 (slope of Phase I) ([SAH] 0.25 µM): 0.0144 ± 5.59e-05 s⁻¹ | b (amplitude, Phase II) ([SAH] 0.25 µM): -0.2306 ± 1.33E-04 | k1 (rate constant, Phase I) ([SAH] 0.25 µM): 0.06487 ± 2.18E-04 s^-1 | k2 (rate constant, Phase II) ([SAH] 0.25 µM): 0.002434 ± 5.47E-06 s^-1 | -b·k2 (slope of Phase II) ([SAH] 0.5 µM): 0.000352 ± 1.25e-06 s⁻¹ | a (amplitude, Phase I) ([SAH] 0.5 µM): 0.2658 ± 3.49E-04 | b (amplitude, Phase II) ([SAH] 0.5 µM): -0.2629 ± 3.89E-04 | k1 (rate constant, Phase I) ([SAH] 0.5 µM): 0.06324 ± 1.36E-04 s^-1 | k2 (rate constant, Phase II) ([SAH] 0.5 µM): 0.00134 ± 4.32E-06 s^-1 | -b·k2 (slope of Phase II) ([SAH] 1 µM): 0.000234 ± 1.38e-06 s⁻¹ | a (amplitude, Phase I) ([SAH] 1 µM): 0.2726 ± 3.65E-04 | a·k1 (slope of Phase I) ([SAH] 1 µM): 0.0186 ± 4.67e-05 s⁻¹ | b (amplitude, Phase II) ([SAH] 1 µM): -0.2134 ± 6.03E-04 | k1 (rate constant, Phase I) ([SAH] 1 µM): 0.06815 ± 1.45E-04 s^-1 | k2 (rate constant, Phase II) ([SAH] 1 µM): 0.001095 ± 5.70E-06 s^-1 | -b·k2 (slope of Phase II) ([SAH] 2.5 µM): 0.00011 ± 2.16e-06 s⁻¹ | a (amplitude, Phase I) ([SAH] 2.5 µM): 0.2961 ± 3.73E-04 | a·k1 (slope of Phase I) ([SAH] 2.5 µM): 0.0213 ± 4.93e-05 s⁻¹ | b (amplitude, Phase II) ([SAH] 2.5 µM): -0.1862 ± 2.16E-03 | k1 (rate constant, Phase I) ([SAH] 2.5 µM): 0.07177 ± 1.40E-04 s^-1 | k2 (rate constant, Phase II) ([SAH] 2.5 µM): 0.0005933 ± 9.36E-06 s^-1 | -b·k2 (slope of Phase II) ([SAH] 5 µM): 5.14e-05 ± 8.08e-06 s⁻¹ | a (amplitude, Phase I) ([SAH] 5 µM): 0.2962 ± 3.74E-04 | b (amplitude, Phase II) ([SAH] 5 µM): -0.3000 ± 3.18E-02 | k1 (rate constant, Phase I) ([SAH] 5 µM): 0.05757 ± 1.17E-04 s^-1 | k2 (rate constant, Phase II) ([SAH] 5 µM): 0.0001714 ± 1.98E-05 s^-1 | -b·k2 (slope of Phase II) ([SAH] 10 µM): 2.22e-05 ± 2.71e-05 s⁻¹ | a (amplitude, Phase I) ([SAH] 10 µM): 0.2774 ± 5.02E-04 | b (amplitude, Phase II) ([SAH] 10 µM): -0.2999 ± 2.24E-01 | increasing trend of Phase II ([SAH] 10 µM): almost abolished | k1 (rate constant, Phase I) ([SAH] 10 µM): 0.05889 ± 1.70E-04 s^-1 | k2 (rate constant, Phase II) ([SAH] 10 µM): 7.42e-05 ± 5.74e-05 s⁻¹
